What all share (assay type): biochemical
Assay [1] deals with T1, rCviUPO (native, non-mutated recombinant CviUPO) (Achaetomiella virescens, UniProt Z9FBJ6W4Y2, I60A/L63A/F87A/T157A, form not given).
T1 construct: codon-optimized gene in pET23a, expressed in E. coli as active cytosolic enzyme without purification tag; heme-thiolate (EC 1.11.2.1); purified by cation exchange and Superdex 75
T1 sequence (Z9FBJ6W4Y2 1-226 I60A/L63A/F87A/T157A): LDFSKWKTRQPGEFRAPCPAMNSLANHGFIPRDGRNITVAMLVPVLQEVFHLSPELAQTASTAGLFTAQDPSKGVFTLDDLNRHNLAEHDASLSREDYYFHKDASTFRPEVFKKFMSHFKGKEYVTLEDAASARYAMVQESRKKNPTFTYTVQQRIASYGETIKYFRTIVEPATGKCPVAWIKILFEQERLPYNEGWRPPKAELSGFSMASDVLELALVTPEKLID
In words: GC-MS quantification of oxygenated products, […] min reactions. Conditions: 24 mM H2O2, 50 mM phosphate pH 7, 20% acetone; substrate-inhibition model.

Assay [2] has as its target T2, rCviUPO (native, non-mutated recombinant CviUPO) (Achaetomiella virescens, UniProt Z9FBJ6W4Y2).
T2 construct: codon-optimized gene in pET23a, expressed in E. coli as active cytosolic enzyme without purification tag; heme-thiolate (EC 1.11.2.1); purified by cation exchange and Superdex 75
T2 sequence (Z9FBJ6W4Y2 1-226): T1 sequence (Z9FBJ6W4Y2 1-226 I60A/L63A/F87A/T157A) with A60I, A63L, A87F, A157T
The description is as above. Conditions: 24 mM H2O2, 50 mM phosphate pH 7, 20% acetone.

In assay [3] the target is T3, rCviUPO (native, non-mutated recombinant CviUPO) (Achaetomiella virescens, UniProt Z9FBJ6W4Y2, F87A/T157A, form not given).
T3 construct: codon-optimized gene in pET23a, expressed in E. coli as active cytosolic enzyme without purification tag; heme-thiolate (EC 1.11.2.1); purified by cation exchange and Superdex 75
T3 sequence (Z9FBJ6W4Y2 1-226 F87A/T157A): T1 sequence (Z9FBJ6W4Y2 1-226 I60A/L63A/F87A/T157A) with A60I, A63L
Described as above. Conditions: 24 mM H2O2, 50 mM phosphate pH 7, 20% acetone; substrate-inhibition model.

The target in assay [4] is T4, rCviUPO (native, non-mutated recombinant CviUPO) (Achaetomiella virescens, UniProt Z9FBJ6W4Y2, T157A).
T4 construct: codon-optimized gene in pET23a, expressed in E. coli as active cytosolic enzyme without purification tag; heme-thiolate (EC 1.11.2.1); purified by cation exchange and Superdex 75
T4 sequence (Z9FBJ6W4Y2 1-226 T157A): T1 sequence (Z9FBJ6W4Y2 1-226 I60A/L63A/F87A/T157A) with A60I, A63L, A87F
The description is as above. The following applies: 24 mM H2O2, 50 mM phosphate pH 7, 20% acetone.

Assay [5] concerns the target T5, rCviUPO (native, non-mutated recombinant CviUPO) (Achaetomiella virescens, UniProt Z9FBJ6W4Y2, F87A).
T5 construct: codon-optimized gene in pET23a, expressed in E. coli as active cytosolic enzyme without purification tag; heme-thiolate (EC 1.11.2.1); purified by cation exchange and Superdex 75
T5 sequence (Z9FBJ6W4Y2 1-226 F87A): T1 sequence (Z9FBJ6W4Y2 1-226 I60A/L63A/F87A/T157A) with A60I, A63L, A157T
The assay is described as above. The following applies: substrate inhibition constant; 24 mM H2O2, 50 mM phosphate pH 7, 20% acetone.

Assay [6] has as its target T5, rCviUPO (native, non-mutated recombinant CviUPO). Described as above. Conditions: 24 mM H2O2, 50 mM phosphate pH 7, 20% acetone; substrate-inhibition model.
The target in assay [7] is T1, rCviUPO (native, non-mutated recombinant CviUPO). The description is as above. The following applies: substrate inhibition constant; 24 mM H2O2, 50 mM phosphate pH 7, 20% acetone.
The target in assay [8] is T3, rCviUPO (native, non-mutated recombinant CviUPO). The description is as above. Conditions: substrate inhibition constant; 24 mM H2O2, 50 mM phosphate pH 7, 20% acetone.
For assay [9] the target is unchanged. In words: spectrophotometric initial rates, […] nm. Conditions: 24 mM H2O2, 0.1 M acetate pH 3 or 5.

Positions count from the first letter of the chain named.

As for `CCCCCCCC/C=C\CCCCCCCC(=O)O` [C18:1, oleic acid], the Km (in general, the concentration of substrate that gives half-maximal velocity) in assay [1] turned out to be 399 ± 94.6 µM; in [2], 58.8 ± 6 µM; in assay [3], 51.6 ± 5.4 µM; in [4], 89 ± 16.4 µM; in [6] it was 278 ± 49 µM. Moreover, the results for the “ki” value in assay [5], in [7] and in assay [8] were 1120 ± 400 µM, 1360 ± 710 µM and 2900 ± 610 µM, respectively.
In the case of `COc1ccc(CO)cc1OC` [veratryl alcohol], in assay [9], the Km stood at 15000 µM.
